Values joined by “and” are separate entries in the source; they are usually repeats but may differ in a detail not shown here. Identical values can stand only once.
Test system: Salmonella typhimurium TA98
Test: Ames test, strain TA98
Type: cell-based
Conditions: positive control at 2 µg/mL

Structure (SMILES): O=[N+]([O-])c1ccc2c(c1)Cc1ccccc1-2 [2-nitrofluorene (2-NF), 2-nitrofluorene]
- MOI (Multiplicity of induction compared to baseline): 6.9 and 5.6

From patent publication EP4389107A1, “METHOD OF PREPARATION OF COSMETIC C[…] […] AND COSMETIC C[…] […]” (Aero-Bw K. Domagala Sp. Jawna, priority 2022, dated 2024)
